Results from patent US9238797B2, “Method for production of pluripotent stem cell” (TAKARA BIO INC., priority 2008, dated 2016).

System: human skin fibroblast
Experiment: iPS cell colony induction, gene transfer with Retronectin or polybrene once or two times (Example 7)
Format: cell-based
Settings: 28th day of culture, N=2
Description: Regarding gene transfer with a retrovirus vector, introduction was carried out once or two times using Retronectin or polybrene, and induction of a pluripotent stem cell was carried out, followed by comparison.
Regarding gene transfer with Retronectin, according to the same manner as that of Example 4-(2), gene transfer was carried out. Gene transfer with polybrene was carried out as follows. […] Each 700 μL of the virus solutions prepared by Preparation Example 2 were mixed in a combination of the condition C of Table 3, polybrene was added to a final concentration of 8 μg/mL to prepare a retrovirus vector mixed solution, the supernatant was removed from the plate on which the cell had been cultured, this retrovirus vector mixed solution was added, and culturing was initiated (day 0 of culturing).
Gene transfer with polybrene was carried out according to the same manner as that of gene transfer with polybrene of Example 7-(2). That is, the supernatant was removed from the plate on which the cell had been cultured, a retrovirus vector mixed solution prepared similarly was added, and culturing was continued.
On the sixth day of culture, according to the same manner as that of Example 5-(4), the gene-introduced cell was seeded on a feeder cell, and culturing was continued, provided that the gene-introduced cell was seeded by each 1.75×10^4 cells.
The number in the Table indicates an average value of N=2.

Retronectin: fragment of fibronectin having a heparin-II binding region (registered trademark, CH-296, TAKARA BIO INC.)
Number of iPS cell colonies (gene transfer once, with protein starvation treatment): 25.5
Number of iPS cell colonies (gene transfer once, without protein starvation treatment): 9.5
Number of iPS cell colonies (gene transfer two times, with protein starvation treatment): 30.0
Number of iPS cell colonies (gene transfer two times, without protein starvation treatment): 26.0
